Data taken from patent US20020155562A1, “Glutathionylspermidine synthetase and processes for recovery and use thereof” (Leopold Flohe, priority 1996, published 2002).

Experiments:
[1] = target: glutathionylspermidine synthetase (GspS); experiment: Kinetic analysis of GspS by HPLC determination of the product Gsp; assay type: biochemical, C. fasciculata; details: 25.0° C.; for Ki: pH 7.5; for Km: substrates of GspS, rapid equilibrium random-order mechanism, pH 7.5, 5 mM magnesium, read-out: limiting Km (dissociation constant of the quarternary complex)
Experimental: Production of starting material: C. fasciculata was grown in a medium previously described (27) in a 100-1 fermenter at 27° C. with continuous stirring (200 rpm) and aeration (0.1 vvm). Organisms were harvested in the late logarithmic growth phase by continous flow centrifugation. The pellet was resuspended with 100 mM HEPES buffer (pH 7.5) containing 1 mM DTT and 1 mM MgSO4. After centrifugation the cells were stored at −20° C. GspS, Assay: The assays were carried out at 25.0° C. in a volume of 0.9 ml containing 50 mM Bis-Tris-propane, 50 mM Tris, pH 7.5, 5 mM MgSO4, 1 mM EDTA, 5 mM DTT, 5 mM ATP, 10 mM GSH, and 10 mM spermidine (1). The assay for TS was carried out as described by Smith et al. (1). Aliquots were taken after 20 min. For thiol analysis a precolumn derivatization with the fluorescent thiol-specific reagent, monobromobimane (Calbiochem), was used as described previously (2). All samples for HPLC analysis were diluted four-fold with water. Separation and analytical conditions were as described previously (28). HPLC-analysis was performed with a Jasco-HPLC-system consisting of an autosampler (851-AS), a pump (PU-980), a ternary gradient unit (LG-980-02), and a highly sensitive fluorescence detector (FP-920), which enabled a precise analysis of the small product peak in the presence of numerous other and larger ones. An external standard (0.04 mM Gsp) was used for integration calibration of the samples.
All kinetic experiments were carried out at 25.0° C. in a volume of 0.9 ml containing 50 mM Bis-Tris-propane, 50 mM Tris, pH 7.5, 1 mM EDTA, 5 mM DTT and variable concentrations of ATP (0.10, 0.13, 0.18, 0.28, 0.66 mM ATP), GSH (0.36, 0.47, 0.66, 1.11, 3.57 mM GSH), and spermidine (0.36, 0.47, 0.66, 1.11, 3.57 mM spermidine), respectively. The enzymatic tests for kinetic studies except the ADP inhibition studies were performed in the presence of phosphoenolpyruvate (10 mM) and pyruvate kinase (0.5 units). A fixed magnesium concentration of 5 mM and a GspS content of 0.072 mg (0.923 μM) was used. Aliquots were taken at 15 min and 30 min. GspS activity was analyzed by product determination as described in example 1.

[2] = test system: glutathionylspermidine synthetase (GspS); experiment: Malachite green colorimetric assay for liberation of inorganic phosphate; assay type: biochemical, C. fasciculata; details: ADP 0-10 mM at ATP 0.2-5 mM; competitive with respect to ATP
Experimental: FIG. 9. Malachite green colorimetric assay for liberation of inorganic phosphate. The malachite green calorimetric assay for liberation of inorganic phosphate (1) was used for fast detection of GspS activity.
The standard assay was carried out at 25.0° C. in a volume of 0.15 ml containing 50 mM Bis-Tris-propane, 50 mM Tris, pH 7.5, 5 mM MgSO4, 1 mM EDTA, 5 mM DTT, 5 mM ATP, 10 mM GSH, 10 mM spermidine, and GspS. After an incubation of 10 min the malachite green reagent was added for detection of GspS activity.
Concentration of ATP (see heading) and ADP (see table).
The liberation of inorganic phosphate from ATP can be easily visualized by malachite green (FIG. 9). The test is amply used to monitor ATP hydrolyzing activities and is correspondingly unspecific. […] This finding enabled us to use this fast and convenient test to measure specifically GspS activity which is accompanied by release of inorganic phosphate from ATP in the presence of glutathione, spermidine, and magnesium ions. The test can be easily adapted to mass screening as outlined below.

## N[C@@H](CCC(=O)N[C@@H](CS)C(=O)NCC(=O)NCCCCNCCCNC(=O)CNC(=O)[C@H](CS)NC(=O)CC[C@H](N)C(=O)O)C(=O)O [TSH, N^1, N^8-bis(glutathionyl)spermidine]
[1]; feed-back inhibition of GspS, competed by GSH
  Ki: 480 µM

## NCCCCNCCCN [spermidine]
[1]
  Km: 470 ± 90 µM

## adenosyltriphosphate [Mg^2+-ATP]
[1]
  Km: 250 ± 20 µM

## N[C@@H](CCC(=O)N[C@@H](CS)C(=O)NCC(=O)O)C(=O)O [GSH, glutathione]
[1]
  Km: 2510 ± 330 µM

## Nc1ncnc2c1ncn2[C@@H]1O[C@H](COP(=O)(O)OP(=O)(O)O)[C@@H](O)[C@H]1O [ADP]
[1]; inhibition of GspS, competitive with respect to ATP, no ATP regenerating system
  Ki: 80 µM
[2]
  inhibition of GspS: significantly inhibits
